Assay results published in PubChem BioAssay (NCI).
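GI50 marks 50% less growth. TGI denotes the concentration required for complete inhibition of growth.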

Legend:
Experiment in all cases: NCI anticancer screen, dose series, 384-well format
786-0 renal = test system: 786-0 renal
A498 renal = test system: A498 renal
A549 NSCLC = test system: A549 NSCLC
ACHN renal = test system: ACHN renal
BT-549 breast = test system: BT-549 breast
CAKI-1 renal = test system: CAKI-1 renal
CCRF-CEM leukemia = test system: CCRF-CEM leukemia
COLO 205 colon = test system: COLO 205 colon
DU-145 prostate = test system: DU-145 prostate
EKVX NSCLC = test system: EKVX NSCLC
HCC-2998 colon = test system: HCC-2998 colon
HCT-116 colon = test system: HCT-116 colon
HCT-15 colon = test system: HCT-15 colon
HL-60(TB) leukemia = test system: HL-60(TB) leukemia
HOP-62 NSCLC = test system: HOP-62 NSCLC
HOP-92 NSCLC = test system: HOP-92 NSCLC
HS 578T breast = test system: HS 578T breast
HT29 colon = test system: HT29 colon
IGROV1 ovarian = test system: IGROV1 ovarian
K-562 leukemia = test system: K-562 leukemia
KM12 colon = test system: KM12 colon
LOX IMVI melanoma = test system: LOX IMVI melanoma
M14 melanoma = test system: M14 melanoma
MALME-3M melanoma = test system: MALME-3M melanoma
MCF7 breast = test system: MCF7 breast
MDA-MB-231 breast = test system: MDA-MB-231 breast
MDA-MB-435 melanoma = test system: MDA-MB-435 melanoma
MDA-MB-468 breast = test system: MDA-MB-468 breast
MOLT-4 leukemia = test system: MOLT-4 leukemia
NCI-H226 lung = test system: NCI-H226 lung
NCI-H23 lung = test system: NCI-H23 lung
NCI-H322M lung = test system: NCI-H322M lung
NCI-H460 NSCLC = test system: NCI-H460 NSCLC
NCI-H522 lung = test system: NCI-H522 lung
NCI/ADR-RES ovarian = test system: NCI/ADR-RES ovarian
OVCAR-3 ovarian = test system: OVCAR-3 ovarian
OVCAR-4 ovarian = test system: OVCAR-4 ovarian
OVCAR-8 ovarian = test system: OVCAR-8 ovarian
PC-3 prostate = test system: PC-3 prostate
RPMI-8226 leukemia = test system: RPMI-8226 leukemia
RXF 393 renal = test system: RXF 393 renal
SF-268 CNS = test system: SF-268 CNS
SF-295 CNS = test system: SF-295 CNS
SF-539 CNS = test system: SF-539 CNS
SK-MEL-28 melanoma = test system: SK-MEL-28 melanoma
SK-MEL-5 melanoma = test system: SK-MEL-5 melanoma
SK-OV-3 ovarian = test system: SK-OV-3 ovarian
SN12C renal = test system: SN12C renal
SNB-19 CNS = test system: SNB-19 CNS
SNB-75 CNS = test system: SNB-75 CNS
SR leukemia = test system: SR leukemia
SW-620 colon = test system: SW-620 colon
T-47D breast = test system: T-47D breast
TK-10 renal = test system: TK-10 renal
U251 glioblastoma = test system: U251 glioblastoma
UACC-257 melanoma = test system: UACC-257 melanoma
UACC-62 melanoma = test system: UACC-62 melanoma
UO-31 renal = test system: UO-31 renal

Compound: COCC(=O)NC/C=C/c1ccc2ncnc(Nc3ccc(Oc4ccc(C)nc4)c(C)c3)c2c1
- GI50 ([…]-0 renal): 16 µM
- TGI (786-0 renal): 29.6 µM
- GI50 (A498 renal): 14.3 µM
- TGI (A498 renal): 27.6 µM
- GI50 (A549 NSCLC): 11.5 µM
- TGI (A549 NSCLC): 23.9 µM
- GI50 (ACHN renal): 12.1 µM
- TGI (ACHN renal): 29.1 µM
- GI50 (BT-549 breast): 13.7 µM
- TGI (BT-549 breast): 26.8 µM
- GI50 (CAKI-1 renal): 10.9 µM
- TGI (CAKI-1 renal): 23.6 µM
- GI50 (CCRF-CEM leukemia): 2.86 µM
- TGI (CCRF-CEM leukemia): 7.8 µM
- GI50 (COLO 205 colon): 12.3 µM
- TGI (COLO 205 colon): 24.8 µM
- GI50 (DU-145 prostate): 12.9 µM
- TGI (DU-145 prostate): 29.3 µM
- GI50 (EKVX NSCLC): 9.72 µM
- TGI (EKVX NSCLC): 22.6 µM
- GI50 (HCC-2998 colon): 17.5 µM
- TGI (HCC-2998 colon): 31.4 µM
- GI50 (HCT-116 colon): 14.2 µM
- TGI (HCT-116 colon): 27.5 µM
- GI50 (HCT-15 colon): 13 µM
- TGI (HCT-15 colon): 26.4 µM
- GI50 (HL-60(TB) leukemia): 3.53 µM
- TGI (HL-60(TB) leukemia): 10.3 µM
- GI50 (HOP-62 NSCLC): 15.4 µM
- TGI (HOP-62 NSCLC): 29.6 µM
- GI50 (HOP-92 NSCLC): 13.4 µM
- TGI (HOP-92 NSCLC): 26.4 µM
- GI50 (HS 578T breast): 11.9 µM
- TGI (HS 578T breast): 24.2 µM
- GI50 (HT29 colon): 15.1 µM
- TGI (HT29 colon): 28.5 µM
- GI50 (IGROV1 ovarian): 11.7 µM
- TGI (IGROV1 ovarian): 24.5 µM
- GI50 (K-562 leukemia): 5.45 µM
- TGI (K-562 leukemia): 18.2 µM
- GI50 (KM12 colon): 15.8 µM
- TGI (KM12 colon): 29.8 µM
- GI50 (LOX IMVI melanoma): 12 µM
- TGI (LOX IMVI melanoma): 24.6 µM
- GI50 (M14 melanoma): 17.1 µM
- TGI (M14 melanoma): 30.9 µM
- GI50 (MALME-3M melanoma): 14.3 µM
- TGI (MALME-3M melanoma): 27.4 µM
- GI50 (MCF7 breast): 4.11 µM
- TGI (MCF7 breast): 14.7 µM
- GI50 (MDA-MB-231 breast): 10.7 µM
- TGI (MDA-MB-231 breast): 23.3 µM
- GI50 (MDA-MB-435 melanoma): 15.6 µM
- TGI (MDA-MB-435 melanoma): 29.1 µM
- GI50 (MDA-MB-468 breast): 2.19 µM
- TGI (MDA-MB-468 breast): 6.66 µM
- GI50 (MOLT-4 leukemia): 6.77 µM
- TGI (MOLT-4 leukemia): 18.8 µM
- GI50 (NCI-H226 lung): 16.4 µM
- TGI (NCI-H226 lung): 31.9 µM
- GI50 (NCI-H23 lung): 15.1 µM
- TGI (NCI-H23 lung): 28.8 µM
- GI50 (NCI-H322M lung): 10.7 µM
- TGI (NCI-H322M lung): 25.8 µM
- GI50 (NCI-H460 NSCLC): 4.25 µM
- TGI (NCI-H460 NSCLC): 13.2 µM
- GI50 (NCI-H522 lung): 1.29 µM
- TGI (NCI-H522 lung): 17.3 µM
- GI50 (NCI/ADR-RES ovarian): 15 µM
- TGI (NCI/ADR-RES ovarian): 29.6 µM
- GI50 (OVCAR-3 ovarian): 14.3 µM
- TGI (OVCAR-3 ovarian): 27.8 µM
- GI50 (OVCAR-4 ovarian): 13.3 µM
- TGI (OVCAR-4 ovarian): 26.3 µM
- GI50 (OVCAR-8 ovarian): 3.59 µM
- TGI (OVCAR-8 ovarian): 13.1 µM
- GI50 (PC-3 prostate): 13.9 µM
- TGI (PC-3 prostate): 28.3 µM
- GI50 (RPMI-8226 leukemia): 4.48 µM
- TGI (RPMI-8226 leukemia): 15.3 µM
- GI50 (RXF 393 renal): 10.7 µM
- TGI (RXF 393 renal): 22.7 µM
- GI50 (SF-268 CNS): 16.7 µM
- TGI (SF-268 CNS): 31 µM
- GI50 (SF-295 CNS): 14 µM
- TGI (SF-295 CNS): 27.3 µM
- GI50 (SF-539 CNS): 2.66 µM
- TGI (SF-539 CNS): 6.57 µM
- GI50 (SK-MEL-28 melanoma): 17.1 µM
- TGI (SK-MEL-28 melanoma): 31.1 µM
- GI50 (SK-MEL-5 melanoma): 3.38 µM
- TGI (SK-MEL-5 melanoma): 13.6 µM
- GI50 (SK-OV-3 ovarian): 11.3 µM
- TGI (SK-OV-3 ovarian): 23.5 µM
- GI50 (SN12C renal): 11.6 µM
- TGI (SN12C renal): 26.5 µM
- GI50 (SNB-19 CNS): 15.2 µM
- TGI (SNB-19 CNS): 28.9 µM
- GI50 (SNB-75 CNS): 15.9 µM
- TGI (SNB-75 CNS): 29.6 µM
- GI50 (SR leukemia): 4.1 µM
- TGI (SR leukemia): 8.2 µM
- GI50 (SW-620 colon): 11.1 µM
- TGI (SW-620 colon): 23.2 µM
- GI50 (T-47D breast): 4.62 µM
- TGI (T-47D breast): 17.6 µM
- GI50 (TK-10 renal): 12 µM
- TGI (TK-10 renal): 24.7 µM
- GI50 (U251 glioblastoma): 15 µM
- TGI (U251 glioblastoma): 28.4 µM
- GI50 (UACC-257 melanoma): 14.9 µM
- TGI (UACC-257 melanoma): 28.3 µM
- GI50 (UACC-62 melanoma): 14.9 µM
- TGI (UACC-62 melanoma): 28.2 µM
- GI50 (UO-31 renal): 12.6 µM
- TGI (UO-31 renal): 25.6 µM
